Measured values: US5164399A, “Rapamycin pyrazoles” (American Home Products Corporation, priority 1991, dated 1992)
Read-outs that look alike come from different tables or passages of the source.

What was measured:
[1] = test system: pinch skin graft; test: survival time of pinch skin graft; format: in vivo, male BALB/c mice recipients (male DBA/2 donors); details: intraperitoneally
Description: (§1) Immunosuppressive activity was evaluated in an in vitro standard pharmacological test procedure to measure lymphocyte proliferation (LAF) and in two in vivo standard pharmacological test procedures. The first in vivo procedure was a popliteal lymph node (PLN) test procedure which measured the effect of compounds of this invention on a mixed lymphocyte reaction and the second in vivo procedure evaluated the survival time of a pinch skin graft.
The second in vivo test procedure is designed to determine the survival time of pinch skin graft from male DBA/2 donors transplanted to male BALB/c recipients. The method is adapted from Billingham R. E. and Medawar P. B., J. Exp. Biol. 28: 385-402, (1951). Briefly, a pinch skin graft from the donor is grafted on the dorsum of the recipient as a homograft, and an autograft is used as control in the same region. […] Untreated recipients serve as rejection control. The graft is monitored daily and observations are recorded until the graft becomes dry and forms a blackened scab. This is considered as the rejection day. The mean graft survival time (number of days±S.D.) of the drug treatment group is compared with the control group.

[2] = test system: cells from the thymus of normal BALB/c mice (lymphocyte proliferation); test: comitogen-induced thymocyte proliferation procedure (LAF); format: cell-based; details: Mus musculus; for inhibition at 0.1 µM: read-out: LAF percent inhibition at 100 nM
Description: as §1
Briefly, cells from the thymus of normal BALB/c mice are cultured for 72 hours with PHA and IL-1 and pulsed with tritiated thymidine during the last six hours. […] Cells are harvested and incorporated; radioactivity is determined. Inhibition of lymphoproliferation is assessed in percent change in counts per minute from non-drug treated controls. The results are expressed as the IC50, expressed in nM, or as the percent inhibition at 100 nM.

[3] = test system: organ grafts; details: histoincompatible rodents; cited from earlier work
[4] = test system: Candida albicans; details: cited from earlier work
[5] = test system: popliteal lymph nodes (mixed lymphocyte reaction); test: in vivo popliteal lymph node (PLN) test procedure (mixed lymphocyte reaction); design: species or system C3H mice (BALB/c donors)
Description: as §1
A mixed lymphocyte reaction (MLR) occurs when lymphoid cells from genetically distinct animals are combined in tissue culture. Each stimulates the other to undergo blast transformation which results in increased DNA synthesis that can be quantified by the incorporation of tritiated thymidine. Since stimulating a MLR is a function of disparity at Major Histocompatibility antigens, an in vivo popliteal lymph node (PLN) test procedure closely correlates to host vs. graft disease. Briefly, irradiated spleen cells from BALB/c donors are injected into the right hind foot pad of recipient C3H mice. […] On Day 3 and Day 4, tritiated thymidine is given i.p., b.i.d. On Day 5, the hind popliteal lymph nodes are removed and dissolved, and radioactivity counted. The corresponding left PLN serves as the control for the PLN from the injected hind foot. Percent suppression is calculated using the non-drug treated animals as allogenic control. […]

[6] = test system: Candida albicans; details: cited from earlier work; remark: listed apart in the source
[7] = thymocytes, PHA and IL-1, 72 hours, tritiated thymidine, read-out: LAF IC50

Row | SMILES | Skin Graft (days ± SD), mean graft survival time [1] [days] | inhibition at 0.1 µM [2] [%] | IC50 [2, 7] [nM] | prolongation of survival time of organ grafts [3] | antifungal activity in vitro [4] | IC50 ([2]; read-out: LAF IC50 of rapamycin as a control for Example 1) [nM] | PLN suppression ([5]; 6 mg/kg, p.o.) [%] | antifungal activity in vivo [6] | PLN (ratio) ([5]; i.p. daily Day 0 to Day 4, ratio as defined)
1 | CO[C@@H]1C(=O)/C(C)=C/[C@@H](C)C(=O)C[C@@H]([C@H](C)C[C@@H]2CC[C@@H](O)[C@H](OC)C2)OC(=O)[C@@H]2CCCCN2C(=O)C(=O)[C@]2(O)O[C@@H](CC[C@H]2C)C[C@H](OC)/C(C)=C/C=C/C=C/[C@@H](C)C[C@@H](C)C1=O [Example 1, 31-Deoxy-31-oxorapamycin] | 9.16 ± 0.47 | 41 | 84.9 | – | – | – | – | – | –
2 | CO[C@H]1C[C@@H]2CC[C@@H](C)[C@@](O)(O2)C(=O)C(=O)N2CCCC[C@H]2C(=O)O[C@H]([C@H](C)C[C@@H]2CC[C@@H](O)[C@H](OC)C2)CC(=O)[C@H](C)/C=C(\C)[C@@H](O)[C@@H](OC)C(=O)[C@H](C)C[C@H](C)/C=C/C=C/C=C/1C [Rapamycin, rapamycin] | 11.66 ± 0.47 | 94 | – | prolong survival time | antifungal activity | 0.2 | 86 | antifungal activity | –
3 | CO[C@@H]1C(=O)/C(C)=C/[C@@H](C)C(=O)C[C@@H]([C@H](C)C[C@@H]2CCC(=O)[C@H](OC)C2)OC(=O)[C@@H]2CCCCN2C(=O)C(=O)[C@]2(O)O[C@@H](CC[C@H]2C)C[C@H](OC)/C(C)=C/C=C/C=C/[C@@H](C)C[C@@H](C)C1=O [Example 2, 31,42-Dideoxy-31,42-dioxorapamycin] | – | 4 | – | – | – | – | – | – | –
4 | COc1c2n[nH]c1[C@H](C)C[C@H](C)/C=C/C=C/C=C(\C)[C@@H](OC)C[C@@H]1CC[C@@H](C)[C@@](O)(O1)C(=O)C(=O)N1CCCC[C@H]1C(=O)O[C@H]([C@H](C)C[C@@H]1CC[C@@H](O)[C@H](OC)C1)CC(=O)[C@H](C)/C=C/2C [Example 3, 33-Deoxo-31-deoxy-31,33-(1-hydrazinyl-2-ylidene)rapamycin] | – | – | 205 | – | – | – | – | – | 0.52
